Here are results for 34 compounds from patent US11014902B2, “MYC G-quadruplex stabilizing small molecules and their use” (The United States of America, as represented by the …, priority 2015, dated 2021).

What all share (type): cell-based, human
Test [1] concerns L363 cells. The test can be described thus: L363 cell viability (MTS). Particulars: for viability at 10 µM: L-363, L363 cells; for IC50: read-out: IC50. On the procedure:
Since two thirds of multiple myeloma cases involve deregulated c-MYC expression (Kuehl and Bergsagel, Blood 2012, 120, 2351; Shou, et al., Proc Natl Acad Sci USA 2000, 97, 228), we elected to evaluate the cell viability effects of Compound 1 in a multiple myeloma model. […] This suppression was maintained over 72 hours, which is notable given the characteristic rapid replenishment of the protein—a phenomenon that complicates targeting c-Myc at the protein level (FIG. 4C). This effect was maintained across a genetically diverse set of 4 multiple myeloma lines. We observed decreases in c-MYC translation in all lines tested, and this effect also correlated with decreases in viability (FIG. 4D).
Human multiple myeloma and Burkitt's Lymphoma cell lines L363, CA46, MM-1R, KMS-11, and MM-1S were cultured and authenticated as previously described (Simmons, et al., Molecular oncology 2014, 8, 261). All plasma derived cell lines were cultured in RPMI-1640 (2 mM L-glutamine, 10% fetal bovine serum (FBS), 100 U/ml penicillin, 100 μg/ml streptomycin: Gibco) and incubated at 37° C. with 5% CO2. Viability experiments were performed in quadruplicate on 96-well plates (Costar) at designated time and dose points. MTS reagent was then directly added, incubated at 37° C. for 90 min, and absorbance of MTS formazan was read at 500 nm on an Omega 640 spectrophotometer. Percentage cell viability was normalized to the absorbance of untreated (DMSO) wells. In the case of cells harvested for their protein or RNA, pellets were flash frozen and stored at −80° C. overnight prior to use. […]

The test system of test [2] is c-MYC expression in L363 cells. The test can be described thus: Inhibition of c-MYC expression in L363 cells (Peggy). To be noted: for Peggy (% c-Myc expression compared to untreated): L363 cells; for activity at 10 µM / Peggy (% c-Myc expression compared to untreated): at 10 μM. The text has this: FIG. 10 illustrates an exemplary procedure for generating analogs of Compound 1. The amine group of Compound 1 can be varied in reductive aminations to provide additional analogs. […] The table also provides an indication of an exemplary commercial source for the compounds, or (if applicable) an indication that the compound is new.

Test [3] concerns MYC expression in L363 cells. The test can be described thus: Gene expression analysis (Nanostring, qPCR), MYC. Particulars: L363 cells, 48 hours; 10 μM BRACO-19, 10 μM Compound 1, 7.5 μM Compound 23. Here is the method: (§1) Gene expression analysis was performed on a panel of 770 cancer-associated genes in a multiplexed (nanostring) transcriptional assay. In addition to c-MYC itself, several c-Myc target genes were included in the panel, as were a number of other quadruplex-driven genes. […] Additionally, a third data set was collected comparing Compound 1 treatment to JQ-1 (a BET-bromodomain inhibitor) and quarfloxin (another quadruplex-binding small molecule).
(§2) The effects of Compound 1 on a number of known quadruplex-driven genes in the panel were examined further (FIG. 6). Expression levels of MYC, RB1, VEGFA, KRAS, and HIF1α, all of which are reported to be under the control of promoter G4s, and are expressed in L363 cells, were included in the panel of genes evaluated by Nanostring as discussed above. […] These changes in gene expression are in line with biophysical measurements of compound affinity. Corresponding data showing similar results is presented for Compounds 1 and 23 in FIGS. 14A and 14B. […] These observations further highlight the ability of Compound 1 and Compound 23 to specifically target the expression of c-Myc and related pathways.
(§3) The phenotype for c-MYC genetic knockdown in multiple myeloma was achieved through lentiviral transduction of shRNA for c-MYC, derived from the spinoculation of 293T cells and plasmids grown in STBL3 E. coli, and isolated with the Qiagen Plasmid Midi Kit. Aliquots of the plasmids were generously provided by Art Shaffer. RNA of treated myeloma cells at designated time points was isolated with the Qiagen RNeasy kit, and used with the nCounter Human Cancer Reference Kit (NanoString Technologies), surveying changes in expression for […] cancer-related human genes and 6 reference genes. Quantitative changes in expression were analyzed and grouped in the form of a heat map using the programming language, R. All other quantitative statistical packing was performed in GraphPad Prism.
On the technique in general: Real-time PCR tracks product formation cycle by cycle.

Test [4] deals with RB1, VEGFA, KRAS, HIF1α, BCL2 expression in L363 cells. Kind of test: Gene expression analysis (Nanostring, qPCR), other G4-associated genes. To be noted: L363 cells, 48 hours; 10 μM BRACO-19, 10 μM Compound 1, 7.5 μM Compound 23. Here is the method:
as §1, §2, §3

The mark [5] stands for this setting: Homo sapiens, L-363, L363 cells, read-out: Peggy (% c-Myc expression compared to untreated).
Setting [6] is: Homo sapiens, L-363, viability of L363 cells.

Like-named read-outs stand apart in the source and are kept apart here. A value given as a limit tells only on which side of the number the result lay.

In test [1] (Homo sapiens), `Cc1ccc(NC(=O)c2c(C)oc3cccc(CN4CCCCCC4)c23)cc1` [Compound 15] returned a viability at 10 µM of 53%. For the same compound, the activity at 10 µM in test [2] (setting [5]) is 80%.

`CCOC(=O)c1c(C)n(C)c2ccc(O)c(CN3CCC(C)CC3)c12` [Compound 11]: the viability at 10 µM in test [1] (Homo sapiens) turned out to be 89%. Besides, the activity at 10 µM in test [2] (setting [5]) was 69%.

`Cc1oc2ccc(O)c(CNC3CC4CCC3CC4)c2c1C(=O)Nc1ccc(C(F)(F)F)cc1` (stereo not drawn) [Compound 34]: the concentration for half-maximal inhibition (IC50) in test [1] (setting [6]) turned out to be 9.83 µM.

For the compound `Cc1oc2ccc(O)c(CN3CCCC[C@@H]3C)c2c1C(=O)Nc1ccc(C(F)(F)F)cc1` [Compound 27], the IC50 in test [1] (setting [6]) turned out to be 25.8 µM.

Take `Cc1oc2ccc(O)c(CN3CCCCC3)c2c1C(=O)Nc1cccc(C(F)(F)F)c1` [Compound 18]: in test [1] (setting [6]), the IC50 was found to be 5.2 µM. Further, the activity at 10 µM in test [2] (setting [5]) came to 6.5%.

With `CCOC(=O)c1c(-c2ccccc2)oc2ccc(O)c(CN3CCCCCC3)c12` [Compound 10], in test [1] (setting [6]), the IC50 stood at 7.1 µM. For the same compound, in test [2] (setting [5]), the activity at 10 µM was found to be 37%.

For the compound `Cc1oc2ccc(O)c(CN3CCCCC3C)c2c1C(=O)Nc1cccc(C(F)(F)F)c1` (stereo not drawn) [Compound 19], the IC50 in test [1] (setting [6]) is 3.8 µM. Besides, the activity at 10 µM in test [2] (setting [5]) stood at 0.56%.

Consider `Cc1oc2ccc(O)c(CN3CCC3)c2c1C(=O)Nc1cccc(C(F)(F)F)c1` [Compound 21], for which the IC50 in test [1] (setting [6]) was above 12 µM. The activity at 10 µM in test [2] (setting [5]) was 74%.

In the case of `Cc1oc2ccc(O)c(CN3CCC(C)CC3)c2c1C(=O)Nc1ccc(C(F)(F)F)cc1` [Compound 26], the IC50 in test [1] (setting [6]) amounted to 11.4 µM.

`Cc1ccc(NC(=O)c2c(C)oc3ccc(O)c(CN4CCCCCC4)c23)c(C)c1` [Compound 3]: the IC50 in test [1] (setting [6]) worked out at 6.3 µM. Besides, in test [2] (setting [5]), the activity at 10 µM came to 52%.

With `Cc1ccccc1NC(=O)c1c(C)oc2ccc(O)c(CN3CCCCC3)c12` [Compound 5], the viability at 10 µM in test [1] (Homo sapiens) turned out to be 85%. The activity at 10 µM in test [2] (setting [5]) is 89%.

On to `Cc1ccc(NC(=O)c2c(C)oc3ccc(O)cc23)cc1` [Compound 14], for which the viability at 10 µM in test [1] (Homo sapiens) amounted to 84%. Also, in test [2] (setting [5]), the activity at 10 µM is 106%.

Consider `Cc1oc2ccc(O)c(CN3CCC[C@H]3C)c2c1C(=O)Nc1ccc(C(F)(F)F)cc1` [Compound 28], for which the IC50 in test [1] (setting [6]) worked out at 6.84 µM.

As for `Cc1oc2ccc(O)c(CN3CC4CCC3C4)c2c1C(=O)Nc1ccc(C(F)(F)F)cc1` (stereo not drawn) [Compound 32], the viability at 10 µM in test [1] (Homo sapiens) is 100%.

`Cc1oc2ccc(O)c(CN3CCCCCC3)c2c1C(=O)Nc1cccc(C(F)(F)F)c1` [Compound 13]: the IC50 in test [1] (setting [6]) was 3.3 µM. In test [2] (setting [5]), the activity at 10 µM was 12%.

For the compound `Cc1oc2ccc(O)c(CNC3CC4CCC3CC4)c2c1C(=O)Nc1ccc(C(F)(F)F)cc1` (stereo not drawn) [Compound 35], the viability at 10 µM in test [1] (Homo sapiens) was found to be 100%.

On to `Cc1oc2ccc(O)c(CN3CCCCCC3)c2c1C(=O)Nc1cccc(Cl)c1C` [Compound 6], for which the IC50 in test [1] (setting [6]) turned out to be 4.9 µM. Besides, the activity at 10 µM in test [2] (setting [5]) was determined as 45%.

`Cc1ccccc1NC(=O)c1c(C)oc2ccc(O)c(CN3CCCCCC3)c12` [Compound 4]: the viability at 10 µM in test [1] (Homo sapiens) worked out at 75%. Further, in test [2] (setting [5]), the activity at 10 µM stood at 73%.

As to `Cc1oc2ccc(O)c(CN3CCCC3)c2c1C(=O)Nc1cccc(C(F)(F)F)c1` [Compound 24], in test [1] (setting [6]), the IC50 came out at 7.8 µM. Moreover, the activity at 6 µM in test [2] (Homo sapiens, L-363, L363 cells, at 6 μM, read-out: Peggy (% c-Myc expression compared to untreated)) stood at 63%.

`Cc1oc2ccc(O)c(CN3CCC3)c2c1C(=O)Nc1ccc(C(F)(F)F)cc1` [Compound 22] yielded a viability at 10 µM in test [1] (Homo sapiens) of 100%. Further, in test [2] (setting [5]), the activity at 10 µM came out at 27%.

For `Cc1oc2ccc(O)c(CNC3CC4CCC3C4)c2c1C(=O)Nc1ccc(C(F)(F)F)cc1` (stereo not drawn) [Compound 33], the viability at 10 µM in test [1] (Homo sapiens) is 100%.

As to `COc1ccc(NC(=O)c2c(C)oc3ccc(O)c(CN4CCCCCC4)c23)cc1` [Compound 7], the IC50 in test [1] (setting [6]) came to 7.2 µM. The activity at 10 µM in test [2] (setting [5]) worked out at 81%.

As for `Cc1ccc(NC(=O)c2c(C)oc3ccc(OS(=O)(=O)C(F)(F)F)c(CN4CCCCCC4)c23)cc1` [Compound 16], the viability at 10 µM in test [1] (Homo sapiens) stood at 70%. Further, the activity at 10 µM in test [2] (setting [5]) is 112%.

For `Cc1oc2ccc(O)c(CN3CCC(C)CC3)c2c1C(=O)Nc1cccc(C(F)(F)F)c1` [Compound 12], the IC50 in test [1] (setting [6]) was found to be 3.4 µM. Moreover, the “Peggy (% c-Myc expression compared to untreated)” value in test [2] is 43% (at 10 μM).

In the case of `Cc1ccc(NC(=O)c2c(C)oc3ccc(O)c(CN4CCN(C)CC4)c23)cc1` [Compound 2], the viability at 10 µM in test [1] (Homo sapiens) was 95%. Moreover, in test [2] (setting [5]), the activity at 10 µM came out at 72%.

For `Cc1oc2ccc(O)c(CN3CCC[C@@H]3C)c2c1C(=O)Nc1ccc(C(F)(F)F)cc1` [Compound 29], in test [1] (setting [6]), the IC50 is 4.45 µM.

For `Cc1oc2ccc(O)c(CCN3CCCCCC3)c2c1C(=O)Nc1ccc(C(F)(F)F)cc1` [Compound 30], the IC50 in test [1] (setting [6]) amounted to 38.2 µM.

Regarding `Cc1oc2ccc(O)c(CN3CCN(C)CC3)c2c1C(=O)Nc1cccc(C(F)(F)F)c1` [Compound 17], in test [1] (setting [6]), the concentration for half-maximal inhibition (IC50) is above 12 µM. The activity at 10 µM in test [2] (setting [5]) is 68%.

`Cc1oc2ccc(O)c(CN3CCCCCC3)c2c1C(=O)NC1CCCCC1` [Compound 8]: the activity at 10 µM in test [2] (setting [5]) was found to be 76%.

Consider `Cc1oc2ccc(O)c(CCCN3CCCCCC3)c2c1C(=O)Nc1ccc(C(F)(F)F)cc1` [Compound 31], for which the viability at 10 µM in test [1] (Homo sapiens) was 100%.

Take `Cc1oc2ccc(O)c(CN3CCC(C)CC3)c2c1C(=O)Nc1cccc(C(F)(F)F)c1` [Compound 20]: in test [1] (viability of L363 cells), the IC50 turned out to be 3.8 µM. For the same compound, the “Peggy (% c-Myc expression compared to untreated)” value in test [2] is 1.4% (at 10 μM).

As to `Cc1oc2ccc(O)c(CN3CCCC3)c2c1C(=O)Nc1ccccc1` [Compound 9], in test [1] (Homo sapiens), the viability at 10 µM was 100%. Also, in test [2] (setting [5]), the activity at 10 µM was 96%.

`CN(C)c1ccc(Nc2c3ccc(NC(=O)CCN4CCCC4)cc3nc3cc(NC(=O)CCN4CCCC4)ccc23)cc1` [BRACO-19, reference compound]: in test [3], the “c-Myc expression (qPCR)” value is “reduced c-Myc expression”. Further, the “expression of other G-quadruplex containing genes (qPCR)” value in test [4] was “minimally affecting expression of other G-quadruplex containing genes”.

On to `Cc1oc2ccc(O)c(CN3CCCC3)c2c1C(=O)Nc1ccc(C(F)(F)F)cc1` [Compound 25], for which the IC50 in test [1] (setting [6]) amounted to 1.6 µM. In addition, the activity at 10 µM in test [2] (setting [5]) turned out to be 32%.

The term viability denotes the share of living cells, or the viability signal relative to a control. The term IC50 denotes the concentration at which inhibition is half-maximal.
